T/C data for 6 compounds are collected here from PubChem BioAssay AID248 (DTP/NCI, 2004).

SMILES strings stand for the structures. “And” between values parts separate entries of the source, which are not always exact repeats. Equal values may be shown once. Toxic doses and inconclusive results are not listed.

For this assay, the system named is L1210 leukemia ip in BDF1 mice, survival T/C. In words: NCI In Vivo Anticancer Drug Screen. Data for tumor model L1210 Leukemia (intraperitoneal) in B6D2F1 (BDF1) mice. The conditions noted are these: endpoint: mean survival time, higher = longer survival. Summed up:
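Antitumor effect is assessed in tumor-bearing animals. Survival in the compound arm is compared with a vehicle-dosed control arm and expressed as their quotient.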

The mark [1] stands for this setting: dose: 100.0 mg/kg/injection, schedule: Q04DX002 (ip), vehicle: Klucel (hydroxypropylcellulose) (HPC).
Where [2] appears, read: dose: 200.0 mg/kg/injection, schedule: Q04DX002 (ip), vehicle: Klucel (hydroxypropylcellulose) (HPC).

For the compound `CCCOC1=C(N2CC2)C(=O)C(OCCC)=C(N2CC2)C1=O`, the T/C (dose: 0.23 mg/kg/injection, schedule: Q01DX009 (ip), vehicle: Klucel (hydroxypropylcellulose) (HPC)) was 103 % of control; the T/C (dose: 0.46 mg/kg/injection, schedule: Q01DX009 (ip), vehicle: Klucel (hydroxypropylcellulose) (HPC)) was 107 % of control; the T/C (dose: 0.62 mg/kg/injection, schedule: Q#A X Z (ip), vehicle: alkali diluted with saline) was 113 % of control; the T/C (dose: 0.93 mg/kg/injection, schedule: Q01DX009 (ip), vehicle: Klucel (hydroxypropylcellulose) (HPC)) is 108 % of control; the T/C (dose: 1.25 mg/kg/injection, schedule: Q01DX006 (iv), vehicle: alkali diluted with saline) is 113 % of control; the T/C (dose: 1.25 mg/kg/injection, schedule: Q01DX Z (im), vehicle: alkali diluted with saline) was 113 % of control. In addition, the T/C (dose: 1.25 mg/kg/injection, schedule: Q01DX Z (ip), vehicle: alkali diluted with saline) was 104 % of control; the T/C (dose: 1.25 mg/kg/injection, schedule: Q01DX Z (sc), vehicle: alkali diluted with saline) was 113 % of control; the T/C (dose: 1.25 mg/kg/injection, schedule: Q#A X Z (ip), vehicle: alkali diluted with saline) is 121 % of control; the T/C (dose: 1.87 mg/kg/injection, schedule: Q01DX009 (ip), vehicle: Klucel (hydroxypropylcellulose) (HPC)) is 114 % of control; the T/C (dose: 1.87 mg/kg/injection, schedule: Q04DX003 (ip), vehicle: Klucel (hydroxypropylcellulose) (HPC)) is 106 % of control; the T/C (dose: 2.5 mg/kg/injection, schedule: Q01DX006 (iv), vehicle: alkali diluted with saline) was 109 % of control. Besides, the T/C reads like this: (dose: 2.5 mg/kg/injection, schedule: Q01DX Z (im), vehicle: alkali diluted with saline) 122 % of control; (dose: 2.5 mg/kg/injection, schedule: Q01DX Z (sc), vehicle: alkali diluted with saline) 110 % of control; (dose: 3.0 mg/kg/injection, schedule: Q03DX006 (ip), vehicle: alkali diluted with saline) 107 % of control; (dose: 3.75 mg/kg/injection, schedule: Q01DX009 (ip), vehicle: Klucel (hydroxypropylcellulose) (HPC)) 122 % of control; (dose: 3.75 mg/kg/injection, schedule: Q04DX003 (ip), vehicle: Klucel (hydroxypropylcellulose) (HPC)) 118 % of control; (dose: 5.0 mg/kg/injection, schedule: Q01DX006 (iv), vehicle: alkali diluted with saline) 122 % of control. Besides, the T/C reads like this: (dose: 5.0 mg/kg/injection, schedule: Q01DX Z (oral), vehicle: alkali diluted with saline) 113 % of control; (dose: 5.0 mg/kg/injection, schedule: Q#A X Z (ip), vehicle: alkali diluted with saline) 158 % of control; (dose: 7.0 mg/kg/injection, schedule: Q03DX006 (ip), vehicle: alkali diluted with saline) 115 % of control; (dose: 10.0 mg/kg/injection, schedule: Q01DX001 (ip), vehicle: alkali diluted with saline) 112 % of control; (dose: 10.0 mg/kg/injection, schedule: Q01DX006 (iv), vehicle: alkali diluted with saline) 115 % of control; (dose: 10.0 mg/kg/injection, schedule: Q01DX Z (im), vehicle: alkali diluted with saline) 163 % of control. Besides, the T/C by setting is: (dose: 10.0 mg/kg/injection, schedule: Q01DX Z (oral), vehicle: alkali diluted with saline) 115 % of control; (dose: 10.0 mg/kg/injection, schedule: Q07DX003 (ip), vehicle: alkali diluted with saline) 96 % of control; (dose: 15.0 mg/kg/injection, schedule: Q03DX006 (ip), vehicle: alkali diluted with saline) 153 % of control; (dose: 20.0 mg/kg/injection, schedule: Q01DX001 (ip), vehicle: alkali diluted with saline) 104 % of control and 115 % of control; (dose: 20.0 mg/kg/injection, schedule: Q01DX006 (iv), vehicle: alkali diluted with saline) 103 % of control; (dose: 20.0 mg/kg/injection, schedule: Q01DX Z (im), vehicle: alkali diluted with saline) 94 % of control. The T/C reads like this: (dose: 20.0 mg/kg/injection, schedule: Q01DX Z (sc), vehicle: alkali diluted with saline) 120 % of control; (dose: 20.0 mg/kg/injection, schedule: Q07DX003 (ip), vehicle: alkali diluted with saline) 106 % of control; (dose: 20.0 mg/kg/injection, schedule: Q#A X Z (ip), vehicle: alkali diluted with saline) 103 % of control; (dose: 30.0 mg/kg/injection, schedule: Q03DX006 (ip), vehicle: alkali diluted with saline) 117 % of control; (dose: 30.0 mg/kg/injection, schedule: Q04DX003 (ip), vehicle: Klucel (hydroxypropylcellulose) (HPC)) 102 % of control; (dose: 40.0 mg/kg/injection, schedule: Q01DX001 (ip), vehicle: alkali diluted with saline) 118 % of control. The T/C is 123 % of control (dose: 40.0 mg/kg/injection, schedule: Q01DX006 (iv), vehicle: alkali diluted with saline); 121 % of control (dose: 40.0 mg/kg/injection, schedule: Q01DX Z (im), vehicle: alkali diluted with saline); 106 % of control (dose: 40.0 mg/kg/injection, schedule: Q01DX Z (ip), vehicle: alkali diluted with saline); 113 % of control (dose: 40.0 mg/kg/injection, schedule: Q01DX Z (sc), vehicle: alkali diluted with saline); 124 % of control (dose: 40.0 mg/kg/injection, schedule: Q07DX003 (ip), vehicle: alkali diluted with saline); 124 % of control (dose: 80.0 mg/kg/injection, schedule: Q01DX001 (ip), vehicle: alkali diluted with saline). The T/C (dose: 80.0 mg/kg/injection, schedule: Q01DX Z (oral), vehicle: alkali diluted with saline) was 122 % of control; the T/C (dose: 125.0 mg/kg/injection, schedule: Q01DX001 (ip), vehicle: alkali diluted with saline) was 103 % of control; the T/C (dose: 160.0 mg/kg/injection, schedule: Q01DX001 (ip), vehicle: alkali diluted with saline) is 115 % of control and 121 % of control; the T/C (dose: 160.0 mg/kg/injection, schedule: Q07DX003 (ip), vehicle: alkali diluted with saline) was 111 % of control; the T/C (dose: 320.0 mg/kg/injection, schedule: Q01DX001 (ip), vehicle: alkali diluted with saline) was 107 % of control and 113 % of control; the T/C (dose: 320.0 mg/kg/injection, schedule: Q07DX003 (ip), vehicle: alkali diluted with saline) is 111 % of control. For the same compound, the T/C is 102 % of control (dose: 500.0 mg/kg/injection, schedule: Q01DX001 (ip), vehicle: alkali diluted with saline); 123 % of control (dose: 640.0 mg/kg/injection, schedule: Q07DX003 (ip), vehicle: alkali diluted with saline); 106 % of control (dose: 1000.0 mg/kg/injection, schedule: Q01DX001 (ip), vehicle: alkali diluted with saline).
Take `O=c1[nH]c2ccccc2nc1C(Cl)(Cl)Cl`: the T/C under setting [1] is 112 % of control and the T/C under setting [2] is 105 % of control.
`OC(c1nc2ccc(Cl)cc2[nH]1)C(O)c1nc2ccc(Cl)cc2[nH]1` (stereo unspecified): the T/C is, setting by setting: (dose: 75.0 mg/kg/injection, schedule: Q01DX001 (ip), vehicle: other) 102 % of control; (dose: 150.0 mg/kg/injection, schedule: Q01DX001 (ip), vehicle: other) 96 % of control; (dose: 300.0 mg/kg/injection, schedule: Q01DX001 (ip), vehicle: other) 91 % of control.
For `Cc1ccc2c(c1)P(O)(=S)c1cc(F)ccc1O2` (stereo unspecified), the T/C by setting is: (dose: 50.0 mg/kg/injection, schedule: Q01DX009 (ip), vehicle: saline) 113 % of control; (dose: 100.0 mg/kg/injection, schedule: Q01DX009 (ip), vehicle: saline) 103 % of control; (dose: 200.0 mg/kg/injection, schedule: Q01DX009 (ip), vehicle: saline) 110 % of control.
Take `CC(=O)C(C)(CCC(=O)NC(C)(C)C)CCC(=O)NC(C)(C)C`: the T/C reads like this: (dose: 100.0 mg/kg/injection, schedule: Q01DX009 (ip), vehicle: saline with Tween-80) 94 % of control; (dose: 100.0 mg/kg/injection, schedule: Q04DX003 (ip), vehicle: saline with Tween-80) 95 % of control; (dose: 200.0 mg/kg/injection, schedule: Q01DX009 (ip), vehicle: saline with Tween-80) 100 % of control; (dose: 200.0 mg/kg/injection, schedule: Q04DX003 (ip), vehicle: saline with Tween-80) 95 % of control; (dose: 400.0 mg/kg/injection, schedule: Q01DX009 (ip), vehicle: saline with Tween-80) 93 % of control; (dose: 400.0 mg/kg/injection, schedule: Q04DX003 (ip), vehicle: saline with Tween-80) 93 % of control.
Consider `CC(=Nc1cc(C)c(C)cc1C)c1c(O)cc(C)oc1=O`, for which the T/C was 93 % of control (dose: 100.0 mg/kg/injection, schedule: Q01DX009 (ip), vehicle: Klucel (hydroxypropylcellulose) (HPC)); 98 % of control under setting [1]; 98 % of control (dose: 200.0 mg/kg/injection, schedule: Q01DX009 (ip), vehicle: Klucel (hydroxypropylcellulose) (HPC)); 98 % of control under setting [2]; 87 % of control (dose: 400.0 mg/kg/injection, schedule: Q01DX009 (ip), vehicle: Klucel (hydroxypropylcellulose) (HPC)); 98 % of control (dose: 400.0 mg/kg/injection, schedule: Q04DX002 (ip), vehicle: Klucel (hydroxypropylcellulose) (HPC)).
